≈ marks a conversion by molar mass, not a printed value. Counter-ions that a name gives are not always drawn. Like-named read-outs stand apart in the source and are kept apart here.
What was measured:
[1] = system: Staphylococcus saprophyticus; conditions: antibiotic susceptible clinical isolate
[2] = system: Enterococcus faecium; conditions: vancomycin-susceptible clinical isolate
[3] = system: Streptococcus mitis; conditions: antibiotic-susceptible clinical isolate
[4] = Stability in simulated intestinal juice (FaSSIF); assay type: in vitro ADME; conditions: FaSSIF pH 6.5, pancreatin 1%, prodrug 20 μg/mL
Protocol: (§1) To avoid direct interaction between the active drug and the gut microfloral population, the prodrug should not undergo premature chemical or enzymic cleavage back to the parent dug while within the gut lumen. To confirm this the prodrugs were incubated with USP SGF (simulated gastric fluid), FeSSIF (fed state simulated intestinal fluid) and FaSSIF (fasted state simulated intestinal fluid) and remaining prodrug and any generated active drug assayed by use of a qualified LC-MS/MS analytical method.
(§2) Method—Prodrug (20 μg/mL) in the FaSSIF cocktail comprising sodium taurocholate 3 mM, lecithin 0.75 mM, NaOH 8.7 mM, NaH2PO4. H2O 28.7 mM, NaCl 106 mM, pancreatin 1% (overall pH 6.5) was incubated for 2 h at 37° C. After acidifying the incubation to stop any reaction the amount of prodrug remaining and drug generated were determined using a qualified LC-MS/MS method.
(§3) To minimize the direct inhibitory action of this drug on gastric emptying/gut motility—and resultant nausea—the prodrug should not undergo premature chemical or enzymic cleavage back to the parent drug while within the gut lumen. To confirm this, the prodrugs were incubated with USP SGF (simulated gastric fluid), FeSSIF (fed state simulated intestinal fluid) and FaSSIF (fasted state simulated intestinal fluid) and remaining prodrug, and any generated active drug, assayed by use of a qualified LC-MS/MS analytical method.
as §2, with “Prodrug” for “Method—Prodrug”
as §1, with “gut,” for “gut microfloral population,”

[5] = system: Clostridium novyi; conditions: ATCC 19402
[6] = system: Fusobacterium nucleatum; conditions: clinical isolate
[7] = system: Corynebacterium jeikeium; conditions: antibiotic-susceptible clinical isolate
[8] = system: Eggerthella lenta; assay: MIC, clindamycin prodrugs; assay type: cell-based
[9] = system: Peptostreptococcus anaerobius; assay: MIC, clindamycin prodrugs; assay type: cell-based; conditions: NCTC 11460
[10] = system: Streptococcus constellatus; conditions: antibiotic-susceptible clinical isolate
[11] = system: Clostridium difficile
[12] = Stability in simulated intestinal juice (FeSSIF); assay type: in vitro ADME; conditions: FeSSIF pH 5.0, pancreatin 1%
Protocol: as §1
Pancreatin was again added at 1%.
as §3
as §1, with “gut,” for “gut microfloral population,”

[13] = system: Clostridium sordellii; conditions: NCTC 13356
[14] = system: Fusobacterium nucleatum; assay: microbe, parasite or virus in culture; conditions: read-out: Minimum inhibitory concentration
[15] = system: Fusobacterium necrophorum; assay: microbe, parasite or virus in culture; conditions: read-out: Minimum inhibitory concentration
[16] = system: Corynebacterium jeikeium; assay: microbe, parasite or virus in culture; conditions: read-out: Minimum inhibitory concentration
[17] = system: Peptostreptococcus magnus; assay: microbe, parasite or virus in culture; conditions: Finegoldia magna, read-out: Minimum inhibitory concentration
[18] = system: Veillonella spp.; assay: microbe, parasite or virus in culture; conditions: read-out: Minimum inhibitory concentration
[19] = system: Clostridium novyi; assay: microbe, parasite or virus in culture; conditions: ATCC19402, read-out: Minimum inhibitory concentration
[20] = system: Porphyromonas assacharolyticus; assay: microbe, parasite or virus in culture; conditions: read-out: Minimum inhibitory concentration
[21] = system: Group G Streptococcus; assay: microbe, parasite or virus in culture; conditions: read-out: Minimum inhibitory concentration
[22] = system: Streptococcus constellatus; assay: microbe, parasite or virus in culture; conditions: read-out: Minimum inhibitory concentration
[23] = system: Enterococcus faecalis; assay: microbe, parasite or virus in culture; conditions: ATCC29212, read-out: Minimum inhibitory concentration
[24] = system: Streptococcus mitis; assay: microbe, parasite or virus in culture; conditions: read-out: Minimum inhibitory concentration
[25] = system: Prevotella bivia; assay: microbe, parasite or virus in culture; conditions: ATCC29303, read-out: Minimum inhibitory concentration
[26] = system: Prevotella oralis; assay: microbe, parasite or virus in culture; conditions: Hoylesella oralis, read-out: Minimum inhibitory concentration
[27] = system: Enterococcus faecium; assay: microbe, parasite or virus in culture; conditions: read-out: Minimum inhibitory concentration
[28] = system: Streptococcus oralis; assay: microbe, parasite or virus in culture; conditions: read-out: Minimum inhibitory concentration
[29] = system: Listeria monocytogenes; assay: microbe, parasite or virus in culture; conditions: read-out: Minimum inhibitory concentration
[30] = system: Prevotella denticola; assay: microbe, parasite or virus in culture; conditions: read-out: Minimum inhibitory concentration
[31] = antibiotic-susceptible clinical isolate
[32] = ribotype 002 - clinical isolate
[33] = ribotype 011 - clinical isolate
[34] = ribotype 027 - clinical isolate
[35] = ribotype 050 - clinical isolate
[36] = ribotype 176 - clinical isolate

SMILES | Minimum inhibitory concentration [1] [µg/mL] | Minimum inhibitory concentration [2] [µg/mL] | Minimum inhibitory concentration [3] [µg/mL] | Simulated intestinal juice (2 h, 37° C.) (FaSSIF) % active drug generated [4] [%] | Minimum inhibitory concentration [5] [µg/mL] | Minimum inhibitory concentration [6] [µg/mL] | Minimum inhibitory concentration [7] [µg/mL] | Minimum inhibitory concentration ([8]; ATCC 43055) [µg/mL] | Minimum inhibitory concentration ([8]; clinical isolate) [µg/mL] | Minimum inhibitory concentration [9] [µg/mL] | Minimum inhibitory concentration [10] [µg/mL] | Minimum inhibitory concentration ([11]; ATCC 700057) [µg/mL] | Minimum inhibitory concentration ([11]; NCTC 13366 - NAP1/027) [µg/mL] | Minimum inhibitory concentration [11, 31] [µg/mL] | Minimum inhibitory concentration [11, 32] [µg/mL] | Minimum inhibitory concentration [11, 33] [µg/mL] | Minimum inhibitory concentration [11, 34] [µg/mL] | Minimum inhibitory concentration [11, 35] [µg/mL] | Minimum inhibitory concentration [11, 36] [µg/mL] | Simulated intestinal juice (2 h, 37° C.) (FeSSIF) % active drug generated [12] [%] | further results
CCCC1CC(C(=O)NC(C(C)Cl)C2OC(SC)C(OC(=O)CCC(=O)N[C@H](C(=O)O)C(C)C)C(O)C2O)N(C)C1 (stereo partly drawn) [Clindamycin succinyl valine ester, Clindamycin-2-[succinyl-(S)-valine]ester trifluoroacetate] | 1 | >64 | 0.25 | <1 | 0.5 | 0.25 | >64 | 8 | 8 | 8 | 1 | >64 | 64 | >64 | 64 | 64 | 64 | 32 | >64 | <1 | Minimum inhibitory concentration [13]: 16 µg/mL
CCCC1CC(C(=O)NC(C(C)Cl)C2OC(SC)C(OC(=O)CCCC(=O)Nc3ccc(C(=O)O)cc3)C(O)C2O)N(C)C1.O=C(O)C(F)(F)F (centres unmarked) [Clindamycin glutaryl PABA ester, Clindamycin-2-(glutaryl-PABA) ester trifluoroacetate] | 4 | >64 | 0.5 | <1 | 4 | 2 | >64 | 16 | 16 | 32 | 2 | >64 | >64 | >64 | >64 | >64 | >64 | >64 | >64 | <1 | Minimum inhibitory concentration [13]: >64 µg/mL
CCC[C@@H]1C[C@@H](C(=O)N[C@@H]([C@H]2O[C@H](SC)[C@H](O)[C@@H](O)[C@H]2O)[C@H](C)Cl)N(C)C1 [Clindamycin, clindamycin, reference compound] |  |  |  |  |  |  |  |  |  |  |  |  |  |  |  |  |  |  |  |  | MIC [14]: ≤ 0.03 µg/mL; MIC [15]: ≤ 0.03 µg/mL; MIC [16]: > 64 µg/mL; MIC [17]: 0.5 µg/mL (≈ 1.18 µM); MIC [18]: ≤ 0.03 µg/mL; MIC [19]: ≤ 0.03 µg/mL; MIC [20]: ≤ 0.03 µg/mL; MIC [21]: ≤ 0.03 µg/mL; MIC [22]: ≤ 0.03 µg/mL; MIC [23]: 8 µg/mL (≈ 18.8 µM); MIC [24]: ≤ 0.03 µg/mL; MIC [25]: ≤ 0.03 µg/mL; MIC [26]: ≤ 0.03 µg/mL; MIC [27]: 32 µg/mL (≈ 75.3 µM); MIC [28]: ≤ 0.03 µg/mL; MIC [29]: 1 µg/mL (≈ 2.35 µM); MIC [30]: ≤ 0.03 µg/mL
